Reference: patent publication US20050164370A1 (priority 2003, published 2005)
Like-named read-outs stand apart in the source and are kept apart here.

Key:
Type in all cases: cell-based, yeast
[1] = tested on: transformed cells TM182-CYC1-ADHIPT4; conditions: DOHLU+Glu, 30° C. for 24 hours
Protocol: (§1) Each of the transformed cells TM182-CYC1-CYC1IPT4, TM182-CYC1-ADHIPT4, TM182-CYC1-CYC1IPT5, TM182-CYC1-ADHIPT5, TM182-CRE1-CYC1IPT4, and TM182-CRE1-ADHIPT5 obtained in Example 16 was inoculated in 200 mL of DOHLU+Gal culture medium, and was pre-cultured at 30° C. for 36 hours. The thus obtained culture solutions were diluted with DOHLU+Glu culture medium so that OD600 became 0.200, and then the diluted ones were further diluted with DOHLU+Glu culture medium at a dilution rate of 1/200 to obtain diluted pre-cultured solutions.
(§2) A 96-well assay plate was prepared by filling each well with 1 μL of a DMSO solution of an examinee substance (Abscisic acid or 6-Benzyl aminopurine). In this regard, it is to be noted that the DMSO solution of a examinee substance was prepared so that the concentration thereof became 200 ppm. Simultaneously, an assay plate was prepared by filling each well with 1 μL of DMSO as a blank section.
(§3) Each of the diluted pre-cultured solutions was added in a volume of 100 μL per each well of both of the assay plates, and was cultured at 30° C. for 24 hours. After incubation, the turbidity of each well was measured using a plate reader.
as §1, with “TM182-CRE1-ADHIPT4, TM182-AHK2-CYC1IPT4, TM182-AHK2-CYC1IPT5” for “TM182-CRE1-CYC1IPT4,”, “TM182-AHK2-ADHIPT5” for “TM182-CRE1-ADHIPT5”
as §3

[2] = tested on: transformed cells TM182-CYC1-CYC1IPT4; conditions: DOHLU+Glu, 30° C. for 24 hours
Protocol: as §1, §2, §3
as §1, with “TM182-CRE1-ADHIPT4, TM182-AHK2-CYC1IPT4, TM182-AHK2-CYC1IPT5” for “TM182-CRE1-CYC1IPT4,”, “TM182-AHK2-ADHIPT5” for “TM182-CRE1-ADHIPT5”
as §3

[3] = tested on: transformed cells TM182-CYC1-CYC1IPT5; experiment: Liquid culture of transformed cell TM182-CYC1-CYC1IPT5 with examinee substance, absorbance; conditions: DOHLU+Glu, 30° C. for 24 hours
Protocol: (§4) The thus obtained culture solutions were diluted with DOHLU+Glu culture medium so that OD600 became 0.200, and then the diluted ones were further diluted with DOHLU+Glu culture medium at a dilution rate of 1/200 to obtain diluted pre-cultured solutions.
as §2
(§5) Each of the diluted pre-cultured solutions was added in a volume of 100 μL per each well of both of the assay plates, and was cultured at 30° C. for 24 hours. After incubation, the turbidity of each well was measured using a plate reader. The absorbance (OD600) of each of the culture solutions of the transformed cells containing the examinee substance was shown in Table 3. […] Further, the growth speeds of the transformed cells TM182-CRE1-CYC1IPT4 and TM182-CRE1-ADHIPT5 in the culture medium to which 6-Benzyl aminopurine was added were faster than those in the culture medium to which only DMSO was added.
as §5, with “4.” for “3.”, “TM182-CRE1-ADHIPT4, TM182-AHK2-CYC1IPT4, TM182-AHK2-CYC1IPT5” for “TM182-CRE1-CYC1IPT4”, “TM182-AHK2-ADHIPT5” for “TM182-CRE1-ADHIPT5”

[4] = tested on: transformed cells TM182-CYC1-ADHIPT5; experiment: Liquid culture of transformed cell TM182-CYC1-ADHIPT5 with examinee substance, absorbance; conditions: DOHLU+Glu, 30° C. for 24 hours
Protocol: as §4, §2, §5
as §5, with “4.” for “3.”, “TM182-CRE1-ADHIPT4, TM182-AHK2-CYC1IPT4, TM182-AHK2-CYC1IPT5” for “TM182-CRE1-CYC1IPT4”, “TM182-AHK2-ADHIPT5” for “TM182-CRE1-ADHIPT5”

[5] = tested on: transformed cells TM182-AHK2-CYC1IPT5; experiment: Liquid culture of transformed cell TM182-AHK2-CYC1IPT5 with examinee substance, absorbance; conditions: Table 4, TM182-AHK2-CYC1-IPT5, 1 μL of 200 ppm DMSO solution per 100 μL, DOHLU+Glu, 30° C. for 24 hours
Protocol: as §4, §2
as §5, with “4.” for “3.”, “TM182-CRE1-ADHIPT4, TM182-AHK2-CYC1IPT4, TM182-AHK2-CYC1IPT5” for “TM182-CRE1-CYC1IPT4”, “TM182-AHK2-ADHIPT5” for “TM182-CRE1-ADHIPT5”

[6] = tested on: transformed cells TM182-AHK2-ADHIPT5; experiment: Liquid culture of transformed cell TM182-AHK2-ADHIPT5 with examinee substance, absorbance; conditions: Table 4, TM182-AHK2-ADH-IPT5, 1 μL of 200 ppm DMSO solution per 100 μL, DOHLU+Glu, 30° C. for 24 hours
Protocol: as §4, §2
as §5, with “4.” for “3.”, “TM182-CRE1-ADHIPT4, TM182-AHK2-CYC1IPT4, TM182-AHK2-CYC1IPT5” for “TM182-CRE1-CYC1IPT4”, “TM182-AHK2-ADHIPT5” for “TM182-CRE1-ADHIPT5”

[7] = Table 3, TM182-CYC1-ADH-IPT4, 1 μL of 200 ppm DMSO solution per 100 μL
[8] = Table 4, TM182-CYC1-ADH-IPT4, 1 μL of 200 ppm DMSO solution per 100 μL
[9] = Table 3, TM182-CYC1-CYC1-IPT4, 1 μL of 200 ppm DMSO solution per 100 μL
[10] = Table 4, TM182-CYC1-CYC1-IPT4, 1 μL of 200 ppm DMSO solution per 100 μL
[11] = Table 3, TM182-CYC1-CYC1-IPT5, 1 μL of 200 ppm DMSO solution per 100 μL
[12] = Table 4, TM182-CYC1-CYC1-IPT5, 1 μL of 200 ppm DMSO solution per 100 μL
[13] = Table 3, TM182-CYC1-ADH-IPT5, 1 μL of 200 ppm DMSO solution per 100 μL
[14] = Table 4, TM182-CYC1-ADH-IPT5, 1 μL of 200 ppm DMSO solution per 100 μL

| SMILES | absorbance (OD600) of the culture solution [1, 7] | absorbance (OD600) of the culture solution [1, 8] | absorbance (OD600) of the culture solution [2, 9] | absorbance (OD600) of the culture solution [2, 10] | absorbance (OD600) of the culture solution [3, 11] | absorbance (OD600) of the culture solution [3, 12] | absorbance (OD600) of the culture solution [4, 13] | absorbance (OD600) of the culture solution [4, 14] | absorbance (OD600) of the culture solution [5] | absorbance (OD600) of the culture solution [6] |
| --- | --- | --- | --- | --- | --- | --- | --- | --- | --- | --- |
| CC1=CC(=O)CC(C)(C)[C@@]1(O)/C=C/C(C)=C\C(=O)O [Compound A, Abscisic acid] | 0.040 | 0.035 | 0.042 | 0.035 | 0.041 | 0.036 | 0.043 | 0.035 | 0.069 | 0.297 |
| c1ccc(CNc2ncnc3nc[nH]c23)cc1 [Compound B, 6-Benzyl aminopurine] | 0.041 | 0.034 | 0.042 | 0.034 | 0.043 | 0.035 | 0.043 | 0.035 | 0.430 | 0.427 |
